Results from US20230081426A1, “COMPOUNDS AND METHODS FOR KRAS MODULATION AND INDICATIONS THEREFOR” (Plexxikon Inc., priority 2020, published 2023).

These compounds were tested against T1, G12D-mutant human KRAS (amino acid residues 1-188) (Homo sapiens, UniProt P01116, G12D) (assay: KRAS Binding Disruption Assay (AlphaScreen; biotinylated KRpep-2d analogue or RAF1-RBD), G12D). Details: KRAS G12D; geometric mean; read-out: KRAS GMean IC50 (uM) MUTATION: G12D.
T1 construct: G12D or G12C-mutant human KRAS (amino acid residues 1-188) with FLAG tag; made in house; host or cells: E. coli
T1 sequence (P01116 1-188 isoform P01116-2 G12D): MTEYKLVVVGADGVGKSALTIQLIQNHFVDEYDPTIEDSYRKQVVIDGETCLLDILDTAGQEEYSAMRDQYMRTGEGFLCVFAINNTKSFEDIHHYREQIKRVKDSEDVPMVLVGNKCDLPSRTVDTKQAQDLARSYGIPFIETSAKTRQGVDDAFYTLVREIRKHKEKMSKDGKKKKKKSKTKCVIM
Outline: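 AlphaScreen readout: signal falls as compound displaces biotinylated KRpep-2d analogue or RAF1-RBD from mutant KRAS. Both partners at 5-20 nM, 1 h binding at 25° C, then 10 μg/mL Anti-Flag acceptor and streptavidin donor beads for 1 h. IC50 by nonlinear regression of % inhibition.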

IC50	Compound
0.0001 to 10 µM	CN1CCC[C@H]1COc1nc(N2C[C@H]3C[C@@H]2CN3)c2ccc(-c3cc(O)cc4ccccc34)cc2n1 [P-0051, 4-(4-((1R,4R)-2,5-diazabicyclo[2.2.1]heptan-2-yl)-2-(((S)-1-methylpyrrolidin-2-yl)methoxy)quinazolin-7-yl)naphthalen-2-ol]
0.0001 to 10 µM	CN1CCC[C@H]1COc1nc(N2C[C@H]3CC[C@@H](C2)N3)c2cc(Cl)c(-c3cc(O)cc4ccccc34)c(OCC(F)(F)F)c2n1 [P-0033, 4-(4-((1R,5S)-3,8-diazabicyclo[3.2.1]octan-3-yl)-6-chloro-2-(((S)-1-methylpyrrolidin-2-yl)methoxy)-8-(2,2,2-trifluoroethoxy)quinazolin-7-yl)naphthalen-2-ol]
0.0001 to 10 µM	OCC(COc1nc(N2C[C@H]3CC[C@@H](C2)N3)c2ccc(-c3cc(O)cc4ccccc34)c(F)c2n1)c1ccccc1 (stereo partly drawn) [P-0584, 4-(4-((1R,5S)-3,8-diazabicyclo[3.2.1]octan-3-yl)-8-fluoro-2-(3-hydroxy-2-phenylpropoxy)quinazolin-7-yl)naphthalen-2-ol]
0.0001 to 10 µM	Oc1cc(-c2ccc3c(N4C[C@H]5CC[C@@H](C4)N5Cc4ccccn4)nc(OCC45CCCN4CCC5)nc3c2)c2ccccc2c1 [P-0076, 4-(4-((1R,5S)-8-(pyridin-2-ylmethyl)-3,8-diazabicyclo[3.2.1]octan-3-yl)-2-((tetrahydro-1H-pyrrolizin-7a(5H)-yl)methoxy)quinazolin-7-yl)naphthalen-2-ol]
0.0001 to 10 µM	CN1C[C@@H](F)C[C@H]1COc1nc(N2C[C@H]3CC[C@@H](C2)N3)c2ccc(-c3cc(O)cc4ccccc34)c(F)c2n1 [P-0554, 4-(4-((1R,5S)-3,8-diazabicyclo[3.2.1]octan-3-yl)-8-fluoro-2-(((2S,4S)-4-fluoro-1-methylpyrrolidin-2-yl)methoxy)quinazolin-7-yl)naphthalen-2-ol]
0.0001 to 10 µM	OCC(CO)COc1nc(N2C[C@H]3CC[C@@H](C2)N3)c2ccc(-c3cc(O)cc4ccccc34)c(F)c2n1 [P-0524, 2-(((4-((1R,5S)-3,8-diazabicyclo[3.2.1]octan-3-yl)-8-fluoro-7-(3-hydroxynaphthalen-1-yl)quinazolin-2-yl)oxy)methyl)propane-1,3-diol]
0.0001 to 10 µM	CCCc1cccc2[nH]cc(-c3ccc4c(N5C[C@H]6CC[C@@H](C5)N6)nc(OCC56CCCN5CCC6)nc4c3F)c12 [P-0598, 4-((1R,5S)-3,8-diazabicyclo[3.2.1]octan-3-yl)-8-fluoro-7-(4-propyl-1H-indol-3-yl)-2-((tetrahydro-1H-pyrrolizin-7a(5H)-yl)methoxy)quinazoline]
0.0001 to 10 µM	CC(=O)NCCN1[C@@H]2CC[C@H]1CN(c1nc(OCC34CCCN3CCC4)nc3c(F)c(-c4cc(O)cc5ccccc45)ccc13)C2 [P-0544, N-(2-((1R,5S)-3-(8-fluoro-7-(3-hydroxynaphthalen-1-yl)-2-((tetrahydro-1H-pyrrolizin-7a(5H)-yl)methoxy)quinazolin-4-yl)-3,8-diazabicyclo[3.2.1]octan-8-yl)ethyl)acetamide]
10 to 100 µM	Cc1nccc2[nH]cc(-c3ccc4c(N5C[C@H]6CC[C@@H](C5)N6)nc(OCC56CCCN5CCC6)nc4c3F)c12 [P-0605, 4-((1R,5S)-3,8-diazabicyclo[3.2.1]octan-3-yl)-8-fluoro-7-(4-methyl-1H-pyrrolo[3,2-c]pyridin-3-yl)-2-((tetrahydro-1H-pyrrolizin-7a(5H)-yl)methoxy)quinazoline]
0.0001 to 10 µM	Nc1ccc(F)c(-c2c(F)cc3c(N4C[C@H]5CC[C@@H](C4)N5)nc(OCC45CCCN4CCC5)nc3c2F)c1 [P-0608, 3-(4-((1R,5S)-3,8-diazabicyclo[3.2.1]octan-3-yl)-6,8-difluoro-2-((tetrahydro-1H-pyrrolizin-7a(5H)-yl)methoxy)quinazolin-7-yl)-4-fluoroaniline]
0.0001 to 10 µM	Cc1ccc2[nH]nc(C)c2c1-c1ccc2c(N3C[C@H]4CC[C@@H](C3)N4)nc(OCC34CCCN3CCC4)nc2c1F [P-0548, 4-((1R,5S)-3,8-diazabicyclo[3.2.1]octan-3-yl)-7-(3,5-dimethyl-1H-indazol-4-yl)-8-fluoro-2-((tetrahydro-1H-pyrrolizin-7a(5H)-yl)methoxy)quinazoline]
